{"source": "patent US11767310B2", "about": "“Nicotinamide RIPK1 inhibitors” (AbbVie Inc., priority 2021, dated 2023)", "test_in_all_cases": "Kinase binding screen", "settings_in_all_cases": "read-out: Percent Control at 100 nM Compound Concentration", "key": {"[1]": {"target": "MAP3K15 (Homo sapiens (Human), UniProt Q6ZN16)", "sequence (Q6ZN16 whole entry)": "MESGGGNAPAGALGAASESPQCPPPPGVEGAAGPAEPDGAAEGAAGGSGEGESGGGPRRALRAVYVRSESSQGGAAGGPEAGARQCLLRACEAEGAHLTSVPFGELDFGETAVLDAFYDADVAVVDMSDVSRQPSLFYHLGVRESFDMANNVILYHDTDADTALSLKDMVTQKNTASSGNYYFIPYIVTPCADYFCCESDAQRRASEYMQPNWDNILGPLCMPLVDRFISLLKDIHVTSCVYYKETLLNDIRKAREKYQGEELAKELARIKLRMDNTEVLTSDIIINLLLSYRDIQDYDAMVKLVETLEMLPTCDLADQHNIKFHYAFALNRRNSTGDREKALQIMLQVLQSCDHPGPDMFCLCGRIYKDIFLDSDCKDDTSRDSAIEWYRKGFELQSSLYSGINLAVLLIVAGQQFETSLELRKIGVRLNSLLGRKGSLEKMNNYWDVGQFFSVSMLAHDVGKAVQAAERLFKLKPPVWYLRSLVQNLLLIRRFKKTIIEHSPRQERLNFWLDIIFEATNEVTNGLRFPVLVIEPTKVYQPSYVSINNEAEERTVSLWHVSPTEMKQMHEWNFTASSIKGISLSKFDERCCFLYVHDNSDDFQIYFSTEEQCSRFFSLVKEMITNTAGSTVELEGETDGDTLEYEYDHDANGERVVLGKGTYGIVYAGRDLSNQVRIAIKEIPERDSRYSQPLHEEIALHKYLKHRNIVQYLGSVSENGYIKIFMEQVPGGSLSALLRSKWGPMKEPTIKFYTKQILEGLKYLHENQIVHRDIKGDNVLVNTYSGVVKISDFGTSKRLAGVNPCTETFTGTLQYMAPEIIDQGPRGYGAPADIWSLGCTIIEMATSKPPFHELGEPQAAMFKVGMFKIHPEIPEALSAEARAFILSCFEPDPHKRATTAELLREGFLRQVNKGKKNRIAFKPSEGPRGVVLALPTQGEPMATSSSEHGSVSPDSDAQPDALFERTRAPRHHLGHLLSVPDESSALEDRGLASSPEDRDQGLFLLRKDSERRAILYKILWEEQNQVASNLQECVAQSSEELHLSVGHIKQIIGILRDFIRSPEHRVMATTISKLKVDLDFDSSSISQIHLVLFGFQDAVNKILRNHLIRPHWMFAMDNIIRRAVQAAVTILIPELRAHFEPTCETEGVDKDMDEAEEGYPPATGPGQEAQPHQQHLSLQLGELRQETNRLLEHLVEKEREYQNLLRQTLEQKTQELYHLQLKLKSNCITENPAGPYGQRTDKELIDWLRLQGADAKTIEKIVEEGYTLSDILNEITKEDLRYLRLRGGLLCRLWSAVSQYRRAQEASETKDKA"}, "[2]": {"target": "MLCK (Homo sapiens (Human), UniProt Q32MK0)"}, "[3]": {"target": "CSNK1A1 (Homo sapiens (Human), UniProt P48729)"}, "[4]": {"target": "ASK1 (Homo sapiens (Human), UniProt Q99683)"}, "[5]": {"target": "CSNK2A2 (Homo sapiens (Human), UniProt P19784)"}, "[6]": {"target": "PRKR (Homo sapiens (Human), UniProt P19525)", "sequence (P19525 whole entry)": "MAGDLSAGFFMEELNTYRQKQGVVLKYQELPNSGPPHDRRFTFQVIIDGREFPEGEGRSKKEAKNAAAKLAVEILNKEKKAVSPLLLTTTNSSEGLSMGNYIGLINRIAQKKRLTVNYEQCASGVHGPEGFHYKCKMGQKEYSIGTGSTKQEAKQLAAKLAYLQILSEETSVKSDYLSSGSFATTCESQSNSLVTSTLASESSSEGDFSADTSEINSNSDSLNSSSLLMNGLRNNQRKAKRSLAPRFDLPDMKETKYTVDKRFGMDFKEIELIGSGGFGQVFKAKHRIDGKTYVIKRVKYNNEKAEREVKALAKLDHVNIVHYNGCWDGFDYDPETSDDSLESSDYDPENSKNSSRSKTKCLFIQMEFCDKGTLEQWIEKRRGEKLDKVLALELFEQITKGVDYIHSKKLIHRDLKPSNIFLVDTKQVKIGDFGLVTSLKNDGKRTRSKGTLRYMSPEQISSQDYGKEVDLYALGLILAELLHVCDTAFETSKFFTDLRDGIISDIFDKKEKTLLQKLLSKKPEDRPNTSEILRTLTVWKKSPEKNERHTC"}, "[7]": {"target": "JNK1 (Homo sapiens (Human), UniProt P45983)"}, "[8]": {"target": "RPS6KA5(Kin.Dom.2-C-terminal) (Homo sapiens (Human), UniProt O75582)"}, "[9]": {"target": "PKNB(M.tuberculosis) (Mycobacterium tuberculosis (strain ATCC 25618 / H37Rv), UniProt P9WI81)"}, "[10]": {"target": "RPS6KA4(Kin.Dom.2-C-terminal) (Homo sapiens (Human), UniProt O75676)"}, "[11]": {"target": "TNK2 (Homo sapiens (Human), UniProt Q07912)"}, "[12]": {"target": "p38-delta (Homo sapiens (Human), UniProt O15264)"}, "[13]": {"target": "FRK (Homo sapiens (Human), UniProt P42685)", "sequence (P42685 whole entry)": "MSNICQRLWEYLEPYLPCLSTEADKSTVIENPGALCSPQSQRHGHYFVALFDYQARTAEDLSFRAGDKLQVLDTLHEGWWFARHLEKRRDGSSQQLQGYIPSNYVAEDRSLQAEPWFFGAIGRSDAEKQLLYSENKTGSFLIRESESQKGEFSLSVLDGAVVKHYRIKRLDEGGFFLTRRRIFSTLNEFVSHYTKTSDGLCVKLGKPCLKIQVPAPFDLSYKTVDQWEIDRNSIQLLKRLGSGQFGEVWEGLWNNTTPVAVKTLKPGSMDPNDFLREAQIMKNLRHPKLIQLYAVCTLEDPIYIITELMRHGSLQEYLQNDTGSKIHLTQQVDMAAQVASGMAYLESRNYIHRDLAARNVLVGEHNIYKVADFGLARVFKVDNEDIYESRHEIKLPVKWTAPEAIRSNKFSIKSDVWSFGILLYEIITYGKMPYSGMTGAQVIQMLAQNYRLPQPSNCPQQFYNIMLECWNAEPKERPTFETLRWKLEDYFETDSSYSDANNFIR"}, "[14]": {"target": "CHEK1 (Homo sapiens (Human), UniProt O14757)"}, "[15]": {"target": "MYLK4 (Homo sapiens (Human), UniProt Q86YV6)"}, "[16]": {"target": "ROS1 (Homo sapiens (Human), UniProt P08922)", "sequence (P08922 28-2347)": "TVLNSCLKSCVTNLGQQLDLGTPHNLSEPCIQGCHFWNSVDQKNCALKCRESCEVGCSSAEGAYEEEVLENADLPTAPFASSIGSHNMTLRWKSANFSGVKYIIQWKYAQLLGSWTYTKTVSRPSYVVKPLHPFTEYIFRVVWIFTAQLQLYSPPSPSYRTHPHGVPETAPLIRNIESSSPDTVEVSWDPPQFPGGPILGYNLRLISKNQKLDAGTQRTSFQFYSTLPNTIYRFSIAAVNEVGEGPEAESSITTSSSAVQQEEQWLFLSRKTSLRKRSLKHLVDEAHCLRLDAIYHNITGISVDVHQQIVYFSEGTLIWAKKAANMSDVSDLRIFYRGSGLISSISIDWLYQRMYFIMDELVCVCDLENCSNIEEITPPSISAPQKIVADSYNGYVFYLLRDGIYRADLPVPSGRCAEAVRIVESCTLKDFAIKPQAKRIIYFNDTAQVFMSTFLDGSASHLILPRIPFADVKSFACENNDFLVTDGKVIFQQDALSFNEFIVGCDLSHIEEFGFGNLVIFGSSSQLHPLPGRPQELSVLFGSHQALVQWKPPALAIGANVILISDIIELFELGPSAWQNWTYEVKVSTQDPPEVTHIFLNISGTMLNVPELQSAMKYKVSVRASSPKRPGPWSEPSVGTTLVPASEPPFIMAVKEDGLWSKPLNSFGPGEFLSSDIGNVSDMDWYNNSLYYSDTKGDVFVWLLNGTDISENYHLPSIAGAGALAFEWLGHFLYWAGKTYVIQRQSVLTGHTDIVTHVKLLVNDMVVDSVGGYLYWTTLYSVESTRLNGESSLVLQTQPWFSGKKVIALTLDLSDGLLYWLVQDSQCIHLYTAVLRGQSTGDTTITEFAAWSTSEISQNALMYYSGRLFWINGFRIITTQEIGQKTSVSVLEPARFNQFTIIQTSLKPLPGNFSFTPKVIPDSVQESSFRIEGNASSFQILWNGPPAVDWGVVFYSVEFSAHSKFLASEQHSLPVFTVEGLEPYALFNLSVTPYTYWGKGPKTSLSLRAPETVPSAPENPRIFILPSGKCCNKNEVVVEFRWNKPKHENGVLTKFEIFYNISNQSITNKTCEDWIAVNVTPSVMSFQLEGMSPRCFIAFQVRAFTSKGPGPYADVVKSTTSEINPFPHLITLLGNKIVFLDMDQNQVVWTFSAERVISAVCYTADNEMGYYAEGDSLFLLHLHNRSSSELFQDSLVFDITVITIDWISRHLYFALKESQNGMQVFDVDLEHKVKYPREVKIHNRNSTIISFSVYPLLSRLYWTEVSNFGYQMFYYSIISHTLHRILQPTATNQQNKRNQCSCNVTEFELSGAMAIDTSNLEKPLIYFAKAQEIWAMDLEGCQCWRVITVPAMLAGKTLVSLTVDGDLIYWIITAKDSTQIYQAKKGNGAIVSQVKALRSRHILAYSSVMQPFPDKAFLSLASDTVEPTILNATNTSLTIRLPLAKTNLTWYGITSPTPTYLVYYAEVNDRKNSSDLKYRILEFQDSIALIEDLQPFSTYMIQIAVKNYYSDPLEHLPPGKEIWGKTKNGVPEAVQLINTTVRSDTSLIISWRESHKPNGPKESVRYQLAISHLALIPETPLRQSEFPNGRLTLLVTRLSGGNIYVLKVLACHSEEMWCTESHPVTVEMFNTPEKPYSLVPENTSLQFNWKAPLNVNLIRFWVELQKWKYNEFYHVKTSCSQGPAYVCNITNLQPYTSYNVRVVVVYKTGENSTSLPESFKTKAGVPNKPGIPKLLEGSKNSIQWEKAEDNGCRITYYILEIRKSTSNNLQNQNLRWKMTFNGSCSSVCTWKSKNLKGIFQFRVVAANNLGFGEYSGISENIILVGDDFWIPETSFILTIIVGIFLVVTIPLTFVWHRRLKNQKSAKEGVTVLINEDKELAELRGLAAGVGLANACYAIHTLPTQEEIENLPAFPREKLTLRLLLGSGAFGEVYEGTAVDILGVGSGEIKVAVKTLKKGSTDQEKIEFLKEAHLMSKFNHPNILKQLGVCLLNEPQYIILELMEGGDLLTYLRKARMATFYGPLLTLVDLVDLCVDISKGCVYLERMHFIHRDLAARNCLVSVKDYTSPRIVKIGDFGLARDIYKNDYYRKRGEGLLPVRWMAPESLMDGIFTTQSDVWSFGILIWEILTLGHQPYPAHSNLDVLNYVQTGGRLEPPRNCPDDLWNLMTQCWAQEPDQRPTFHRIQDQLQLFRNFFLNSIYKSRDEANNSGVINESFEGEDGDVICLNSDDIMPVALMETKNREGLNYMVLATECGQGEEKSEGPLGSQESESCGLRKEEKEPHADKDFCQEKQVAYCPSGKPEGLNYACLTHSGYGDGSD"}, "[17]": {"target": "EPHB4 (Homo sapiens (Human), UniProt P54760)"}, "[18]": {"target": "AURKC (Homo sapiens (Human), UniProt Q9UQB9)"}, "[19]": {"target": "CSNK1G1 (Homo sapiens (Human), UniProt Q9HCP0)", "sequence (Q9HCP0 whole entry)": "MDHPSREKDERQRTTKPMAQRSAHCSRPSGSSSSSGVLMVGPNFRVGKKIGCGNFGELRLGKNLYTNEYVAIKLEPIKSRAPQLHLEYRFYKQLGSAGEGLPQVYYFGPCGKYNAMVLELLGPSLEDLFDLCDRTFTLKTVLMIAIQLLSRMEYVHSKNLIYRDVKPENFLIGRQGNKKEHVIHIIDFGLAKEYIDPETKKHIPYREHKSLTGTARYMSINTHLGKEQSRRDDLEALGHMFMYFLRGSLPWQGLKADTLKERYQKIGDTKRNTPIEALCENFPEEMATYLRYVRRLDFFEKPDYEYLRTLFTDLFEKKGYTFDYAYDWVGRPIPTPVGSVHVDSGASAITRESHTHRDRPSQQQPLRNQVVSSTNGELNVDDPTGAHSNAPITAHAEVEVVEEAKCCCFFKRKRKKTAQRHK"}, "[20]": {"target": "ABL1(F317I)-phosphorylated (Homo sapiens (Human), UniProt P00519, F317I)"}, "[21]": {"target": "PRKCD (Homo sapiens (Human), UniProt Q05655)"}, "[22]": {"target": "SBK1 (Homo sapiens (Human), UniProt Q52WX2)"}, "[23]": {"target": "CLK4 (Homo sapiens (Human), UniProt Q9HAZ1)"}, "[24]": {"target": "DYRK2 (Homo sapiens (Human), UniProt Q92630)"}, "[25]": {"target": "TIE1 (Homo sapiens (Human), UniProt P35590)"}, "[26]": {"target": "PLK1 (Homo sapiens (Human), UniProt P53350)"}, "[27]": {"target": "ALK(C1156Y) (Homo sapiens (Human), UniProt Q9UM73, C1156Y)"}, "[28]": {"target": "FLT3(D835Y) (Homo sapiens (Human), UniProt P36888, D835Y)"}}, "note": "Where two headings read alike, the source gives them in different places.", "data": [{"compound": "CN(C[C@@H](O)Cc1ccccc1)C(=O)c1cncc(C#Cc2cnn(C(F)F)c2)c1", "note": "[Example 2, (S)-5-((1-(difluoromethyl)-1H-pyrazol-4-yl)ethynyl)-N-(2-hydroxy-3-phenylpropyl)-N-methylnicotinamide]", "values": [{"measurement": "remaining activity at 0.1 µM", "setting": "[1]; MAP3K15", "value": 100, "unit": "%"}, {"measurement": "remaining activity at 0.1 µM", "setting": "[2]; MLCK", "value": 100, "unit": "%"}, {"measurement": "remaining activity at 0.1 µM", "setting": "[3]; CSNK1A1", "value": 100, "unit": "%"}, {"measurement": "remaining activity at 0.1 µM", "setting": "[4]; ASK1", "value": 88, "unit": "%"}, {"measurement": "remaining activity at 0.1 µM", "setting": "[5]; CSNK2A2", "value": 100, "unit": "%"}, {"measurement": "remaining activity at 0.1 µM", "setting": "[6]; PRKR", "value": 100, "unit": "%"}, {"measurement": "remaining activity at 0.1 µM", "setting": "[7]; JNK1", "value": 92, "unit": "%"}, {"measurement": "remaining activity at 0.1 µM", "setting": "[8]; RPS6KA5(Kin.Dom.2-C-terminal)", "value": 95, "unit": "%"}, {"measurement": "remaining activity at 0.1 µM", "setting": "[9]", "value": 100, "unit": "%"}, {"measurement": "remaining activity at 0.1 µM", "setting": "[10]; RPS6KA4(Kin.Dom.2-C-terminal)", "value": 97, "unit": "%"}, {"measurement": "remaining activity at 0.1 µM", "setting": "[11]; TNK2", "value": 100, "unit": "%"}, {"measurement": "remaining activity at 0.1 µM", "setting": "[12]; p38-delta", "value": 100, "unit": "%"}, {"measurement": "remaining activity at 0.1 µM", "setting": "[13]; FRK", "value": 100, "unit": "%"}, {"measurement": "remaining activity at 0.1 µM", "setting": "[14]; CHEK1", "value": 100, "unit": "%"}, {"measurement": "remaining activity at 0.1 µM", "setting": "[15]; MYLK4", "value": 99, "unit": "%"}, {"measurement": "remaining activity at 0.1 µM", "setting": "[16]; ROS1", "value": 100, "unit": "%"}, {"measurement": "remaining activity at 0.1 µM", "setting": "[17]; EPHB4", "value": 100, "unit": "%"}, {"measurement": "remaining activity at 0.1 µM", "setting": "[18]; AURKC", "value": 100, "unit": "%"}, {"measurement": "remaining activity at 0.1 µM", "setting": "[19]; CSNK1G1", "value": 100, "unit": "%"}, {"measurement": "remaining activity at 0.1 µM", "setting": "[20]; ABL1(F317I)-phosphorylated", "value": 100, "unit": "%"}, {"measurement": "remaining activity at 0.1 µM", "setting": "[21]; PRKCD", "value": 98, "unit": "%"}, {"measurement": "remaining activity at 0.1 µM", "setting": "[22]; SBK1", "value": 97, "unit": "%"}, {"measurement": "remaining activity at 0.1 µM", "setting": "[23]; CLK4", "value": 92, "unit": "%"}, {"measurement": "remaining activity at 0.1 µM", "setting": "[24]; DYRK2", "value": 100, "unit": "%"}, {"measurement": "remaining activity at 0.1 µM", "setting": "[25]; TIE1", "value": 100, "unit": "%"}, {"measurement": "remaining activity at 0.1 µM", "setting": "[26]; PLK1", "value": 87, "unit": "%"}, {"measurement": "remaining activity at 0.1 µM", "setting": "[27]; ALK(C1156Y)", "value": 100, "unit": "%"}, {"measurement": "remaining activity at 0.1 µM", "setting": "[28]; FLT3(D835Y)", "value": 100, "unit": "%"}]}, {"compound": "CN(C[C@H](Cc1ccccc1)OP(=O)(O)O)C(=O)c1cncc(C#Cc2cnn(C(F)F)c2)c1", "note": "[Example 19, (S)-1-(5-((1-(difluoromethyl)-1H-pyrazol-4-yl)ethynyl)-N-methylnicotinamido)-3-phenylpropan-2-yl dihydrogen phosphate]", "values": [{"measurement": "remaining activity at 0.1 µM", "setting": "[1]", "value": 97, "unit": "%"}, {"measurement": "remaining activity at 0.1 µM", "setting": "[2]", "value": 100, "unit": "%"}, {"measurement": "remaining activity at 0.1 µM", "setting": "[3]", "value": 92, "unit": "%"}, {"measurement": "remaining activity at 0.1 µM", "setting": "[4]", "value": 100, "unit": "%"}, {"measurement": "remaining activity at 0.1 µM", "setting": "[5]", "value": 100, "unit": "%"}, {"measurement": "remaining activity at 0.1 µM", "setting": "[6]", "value": 97, "unit": "%"}, {"measurement": "remaining activity at 0.1 µM", "setting": "[7]", "value": 87, "unit": "%"}, {"measurement": "remaining activity at 0.1 µM", "setting": "[8]", "value": 90, "unit": "%"}, {"measurement": "remaining activity at 0.1 µM", "setting": "[9]", "value": 100, "unit": "%"}, {"measurement": "remaining activity at 0.1 µM", "setting": "[10]", "value": 100, "unit": "%"}, {"measurement": "remaining activity at 0.1 µM", "setting": "[11]", "value": 100, "unit": "%"}, {"measurement": "remaining activity at 0.1 µM", "setting": "[12]", "value": 100, "unit": "%"}, {"measurement": "remaining activity at 0.1 µM", "setting": "[13]", "value": 100, "unit": "%"}, {"measurement": "remaining activity at 0.1 µM", "setting": "[14]", "value": 100, "unit": "%"}, {"measurement": "remaining activity at 0.1 µM", "setting": "[15]", "value": 100, "unit": "%"}, {"measurement": "remaining activity at 0.1 µM", "setting": "[16]", "value": 91, "unit": "%"}, {"measurement": "remaining activity at 0.1 µM", "setting": "[17]", "value": 100, "unit": "%"}, {"measurement": "remaining activity at 0.1 µM", "setting": "[18]", "value": 100, "unit": "%"}, {"measurement": "remaining activity at 0.1 µM", "setting": "[19]", "value": 100, "unit": "%"}, {"measurement": "remaining activity at 0.1 µM", "setting": "[20]", "value": 98, "unit": "%"}, {"measurement": "remaining activity at 0.1 µM", "setting": "[21]", "value": 94, "unit": "%"}, {"measurement": "remaining activity at 0.1 µM", "setting": "[22]", "value": 95, "unit": "%"}, {"measurement": "remaining activity at 0.1 µM", "setting": "[23]", "value": 100, "unit": "%"}, {"measurement": "remaining activity at 0.1 µM", "setting": "[24]", "value": 97, "unit": "%"}, {"measurement": "remaining activity at 0.1 µM", "setting": "[25]", "value": 100, "unit": "%"}, {"measurement": "remaining activity at 0.1 µM", "setting": "[26]", "value": 87, "unit": "%"}, {"measurement": "remaining activity at 0.1 µM", "setting": "[27]", "value": 100, "unit": "%"}, {"measurement": "remaining activity at 0.1 µM", "setting": "[28]", "value": 100, "unit": "%"}]}]}
